Measurements published in ChEMBL document CHEMBL2073811, “Uptake of the mycotoxin ochratoxin A in liver cells occurs via the cloned organic anion transporting polypeptide” (J Pharmacol Exp Ther, 1996).

Columns and labels:
[1] = target: T1, Solute carrier organic anion transporter family member 1A1 (Rattus norvegicus, UniProt P46720); experiment: TP_TRANSPORTER: inhibition of Ochratoxin A uptake (OTA: 1 uM, GC: 100uM) in Xenopus laevis oocytes; assay type: functional, cell-based; settings: oocyte
T1 sequence (P46720 whole entry): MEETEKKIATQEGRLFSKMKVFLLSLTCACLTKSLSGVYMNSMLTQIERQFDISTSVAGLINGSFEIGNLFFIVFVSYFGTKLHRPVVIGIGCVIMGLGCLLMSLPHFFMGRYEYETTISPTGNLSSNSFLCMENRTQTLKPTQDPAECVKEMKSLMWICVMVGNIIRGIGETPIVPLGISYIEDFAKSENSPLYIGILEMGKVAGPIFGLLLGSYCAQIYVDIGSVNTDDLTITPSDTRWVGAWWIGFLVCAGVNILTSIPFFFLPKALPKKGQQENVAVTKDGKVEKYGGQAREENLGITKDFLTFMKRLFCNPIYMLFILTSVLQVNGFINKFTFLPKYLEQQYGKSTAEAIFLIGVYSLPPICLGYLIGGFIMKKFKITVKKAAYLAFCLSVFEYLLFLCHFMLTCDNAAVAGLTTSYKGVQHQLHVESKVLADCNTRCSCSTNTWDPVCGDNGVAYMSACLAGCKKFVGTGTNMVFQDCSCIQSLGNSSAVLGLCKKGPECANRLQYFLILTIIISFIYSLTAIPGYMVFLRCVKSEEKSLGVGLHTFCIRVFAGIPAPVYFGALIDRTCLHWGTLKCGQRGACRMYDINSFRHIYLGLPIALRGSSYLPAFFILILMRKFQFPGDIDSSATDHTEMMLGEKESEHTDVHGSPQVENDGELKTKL

[2] = target: T1, Solute carrier organic anion transporter family member 1A1; experiment: TP_TRANSPORTER: uptake in Xenopus laevis oocytes; assay type: functional, cell-based, Oocyte; settings: Xenopus laevis oocytes expressing the transporter
[3] = target: T1, Solute carrier organic anion transporter family member 1A1; experiment: TP_TRANSPORTER: inhibition of Ochratoxin A uptake (OTA: 1 uM, BSP: 100uM) in Xenopus laevis oocytes; assay type: functional, cell-based; settings: oocyte
[4] = target: T1, Solute carrier organic anion transporter family member 1A1; experiment: TP_TRANSPORTER: inhibition of Ochratoxin A uptake (OTA: 1 uM, E1S: 100uM) in Xenopus laevis oocytes; assay type: functional, cell-based; settings: oocyte
[5] = target: T1, Solute carrier organic anion transporter family member 1A1; experiment: TP_TRANSPORTER: inhibition of Ochratoxin A uptake (OTA: 1 uM, CRC-220: 100uM) in Xenopus laevis oocytes; assay type: functional, cell-based; settings: oocyte

C[C@H](CCC(=O)NCC(=O)O)[C@H]1CC[C@H]2[C@@H]3[C@H](O)C[C@@H]4C[C@H](O)CC[C@]4(C)[C@H]3C[C@H](O)[C@]12C [GLYCOCHOLIC ACID]
Activity [1]: inhibitor [+]

C[C@@H]1Cc2c(Cl)cc(C(=O)N[C@@H](Cc3ccccc3)C(=O)O)c(O)c2C(=O)O1 [3R14S-OCHRATOXIN A]
Km [2]: 16.6 µM

O=C1OC(c2ccc(O)c(S(=O)(=O)[O-])c2)(c2ccc(O)c(S(=O)(=O)[O-])c2)c2c(Br)c(Br)c(Br)c(Br)c21.[Na+].[Na+] [SULFOBROMOPHTHALEIN SODIUM]
Activity [3]: inhibitor [+]

C[C@]12CC[C@@H]3c4ccc(OS(=O)(=O)O)cc4CC[C@H]3[C@@H]1CCC2=O [ESTRONE SULFURIC ACID]
Activity [4]: inhibitor [+]

COc1cc(C)c(S(=O)(=O)N[C@@H](CC(=O)O)C(=O)N[C@H](Cc2ccc(C(=N)N)cc2)C(=O)N2CCCCC2)c(C)c1C
Activity [5]: inhibitor [+]
